In patent publication US10744072B2, “Cosmetic composition for oral administration for reinforcing the skin barrier” (NUTRICOS Technologies, priority 2015, dated 2020):

Key:
Type in all cases: cell-based
SPRR2D = test: Gene expression (RNAm) of SPRR2D in human keratinocytes NHEK per RT-qPCR; conditions: each compound at 10 μg/ml, 18 hours incubation, standardized to RPS28 and GAPDH
Description: (§1) The effect of the lycopene and manganese was studied separately then in combination on the gene expression profile (RNAm) of human keratinocytes NHEK (normal human epidermal keratinocytes) per RT-qPCR.
(§2) A 24-well plate was seeded with keratinocytes then placed into culture for 24 hours. The culture medium was then replaced with the test medium comprising according to the cases 0 (negative control), one or two tested compounds. The cells were incubated in this test medium for 18 hours then washed and frozen at −80° C. Each condition was carried out in triplicate. Two samples of each triplicate were grouped together, then the RNAm was extracted therefrom using TriPure Isolation Reagent® according to the supplier's recommendations. The ADNc was synthesized via reverse transcription of total RNA by “Transcriptor Reverse Transcriptase” from Roche. Then a quantitative PCR was performed in the presence of a fluorophore. The incorporation of fluorophore in the amplified DNA was measured during the PCR cycles. Two genes were used as a reference (RPS28 ad GADPH), in order to standardize the results. As such the level of expression of the studied genes was compared to the average level of expression of these two reference genes for all of the conditions tested.
(§3) For this test, the source of lycopene is Lyc-o-Mato marketed by Lycored and the source manganese is manganese sulfate.

RPS28 = test: Gene expression of reference gene RPS28 in human keratinocytes NHEK per RT-qPCR; conditions: each compound at 10 μg/ml, 18 hours incubation
Description: as §1, §2, §3

GAPDH = test: Gene expression of reference gene GAPDH in human keratinocytes NHEK per RT-qPCR; conditions: each compound at 10 μg/ml, 18 hours incubation
Description: as §1, §2, §3

For manganese sulfate, the “SPRR2D expression expressed as a percentage in relation to the conditions without added compound” value (SPRR2D) was 106%, the “Control (RPS28) expression expressed as a percentage in relation to the conditions without added compound” value (RPS28) was 117% and the “Control (GAPDH) expression expressed as a percentage in relation to the conditions without added compound” value (GAPDH) was 96%.
